{"source": "patent US20200017913A1", "about": "“METHODS AND SYSTEMS FOR PREDICTING TREATMENT RESPONSES IN SUBJECTS” (PRESIDENT AND FELLOWS OF HARVARD COLLEGE, priority 2017, published 2020)"}
{"system": "pancolitis in Patient #2", "assay": "Clinical treatment course of Patient #2 with pancolitis", "type": "in vivo, human", "details": "Patient #2, pancolitis flare, conventional therapies", "method": "Patient #2 was evaluated by a general intestinal doctor […] to receive treatment for bloody stool. […]\nThis included a glucocorticoid stress dose and a vancomycin treatment.\nAt that point, the tissue obtained in the most recent colonoscopic biospy was gene expression (RNA) profiled according to an exemplary methodology of the present disclosure. […] In this case, the drug was indigo, an over the counter supplement, also known as Qing Dai."}
{"smiles": "Sc1ncnc2nc[nH]c12", "note": "[6-mercaptopurine]", "clinical response to treatment": "no improvement after 3 months"}
{"smiles": "CO[C@H]1/C=C/O[C@@]2(C)Oc3c(C)c(O)c4c(O)c(c5c(nc6cc(C)ccn65)c4c3C2=O)NC(=O)/C(C)=C\\C=C\\[C@H](C)[C@H](O)[C@@H](C)[C@@H](O)[C@@H](C)[C@H](OC(C)=O)[C@@H]1C", "note": "[Rifaximin]", "clinical response to treatment": "transient improvement for a couple weeks"}
{"smiles": "C=CC[C@@H]1/C=C(\\C)C[C@H](C)C[C@H](OC)[C@H]2O[C@@](O)(C(=O)C(=O)N3CCCC[C@H]3C(=O)O[C@H](/C(C)=C/[C@@H]3CC[C@@H](O)[C@H](OC)C3)[C@H](C)[C@@H](O)CC1=O)[C@H](C)C[C@@H]2OC", "note": "[tacrolimus]", "clinical response to treatment": "mild improvement but no remission"}
{"smiles": "CN[C@H](CC(C)C)C(=O)N[C@H]1C(=O)N[C@@H](CC(N)=O)C(=O)N[C@H]2C(=O)N[C@H]3C(=O)N[C@H](C(=O)N[C@H](C(=O)O)c4cc(O)cc(O)c4-c4cc3ccc4O)[C@H](O)c3ccc(c(Cl)c3)Oc3cc2cc(c3O[C@@H]2O[C@H](CO)[C@@H](O)[C@H](O)[C@H]2O[C@H]2C[C@](C)(N)[C@H](O)[C@H](C)O2)Oc2ccc(cc2Cl)[C@H]1O", "note": "[vancomycin]", "clinical response to treatment": "transient effect that lasted about a week"}
